In assay [1] the target is T1, mu-opioid receptor (MOR) (Rattus norvegicus, UniProt P33535).
T1 construct: Rat cortices were homogenized using 50 mM Tris, pH 7.4, and centrifuged at 16,500 rpm for 10 min; from tissue; host or cells: rat cortex membranes
As to the kind of experiment: MOR radioligand competition binding assay ([3H]-DAMGO). The note with it: Mu screening results. As to the method:
MOR binding assay: Rat cortices were homogenized using 50 mM Tris, pH 7.4, and centrifuged at 16,500 rpm for 10 min. The pellets were resuspended in fresh buffer and incubated at 37 °C for 30 min. Following incubation, the suspensions were centrifuged as before, the resulting pellets were resuspended in 100 volumes of 50 mM Tris, pH 7.4 plus 2 mg/mL bovine serum and the suspensions combined. Each assay tube contained 0.5 mL of membrane suspension, 2 nM [^3H]-DAMGO, and 0.02 mg/mL mixture in a total volume of 0.65 mL [13, 45, 53, 55].
(§1) All three binding assays were terminated by filtration through GF/B filters, soaked in 5 mg/mL bovine serum albumin, 50 mM Tris, pH 7.4, on a Tomtec Mach II Harvester 96. The filters were subsequently washed with 6 mL of assay buffer. Bound radioactivity was counted on a Wallac Betaplate Liquid Scintillation Counter. Experiments were conducted using two replicates and repeated twice. Values in Scheme 2 represent the mean ± SD of two experiments with two replicates in each test.

Assay [2] deals with T2, delta-opioid receptor (DOR) (Rattus norvegicus, UniProt P33533).
T2 construct: Rat cortices were homogenized using 50 mM Tris, pH 7.4, 10 mM MgCl2-6H2O, 200 µM PMSF; from tissue; host or cells: rat cortex membranes
Nature of the assay: DOR radioligand competition binding assay ([3H]-DPDPE). The note with it: Delta screening results. As to the method: DOR binding assay: Rat cortices were homogenized using 50 mM Tris, pH 7.4, 10 mM MgCl2-6H2O, 200 µM PMSF, centrifuged and incubated as above. Each assay tube contained 2 nM [^3H]-DPDPE. Assay tubes were incubated for 2.5 h at 25 °C. Unlabeled DPDPE was used as a competitor to generate a standard curve and determine nonspecific binding.
as §1
(In general: In a radioligand displacement assay an active substance lowers the binding of a labelled ligand.)

For assay [3], the target named is T3, kappa-opioid receptor (KOR) (Cavia porcellus, UniProt P41144).
T3 construct: Guinea pig cortices and cerebella were homogenized using 50 mM Tris, pH 7.4; from tissue; host or cells: guinea pig cortex and cerebellum membranes
As to the kind of experiment: KOR radioligand competition binding assay ([3H]U69,593). Set-up: species or system guinea pig. The conditions noted are these: Kappa screening results. The procedure:
KOR binding assay: Guinea pig cortices and cerebella were homogenized using 50 mM Tris, pH 7.4, 10 mM MgCl2-6H2O, […] centrifuged and incubated as above. Each assay tube contained 2 nM [^3H]U69,593. Assay tubes were incubated for 2 h at 25 °C. Unlabeled U50,488 was used as a competitor to generate a standard curve and determine nonspecific binding.
as §1

Where [4] appears, read: experiment 1, unit inferred, read-out: Ki (Exp 1).
[5] abbreviates: experiment 2, unit inferred, read-out: Ki (Exp 2).
The mark [6] stands for this setting: mean of Exp 1 and Exp 2, unit inferred, read-out: MEAN (Ki).
[7] abbreviates: mean of two experiments, read-out: Ki.
The mark [8] stands for this setting: first Ki column, unit not printed (apparently M), read-out: Ki (first column).
[9] abbreviates: mean of both Ki, unit inferred, read-out: MEAN (Ki).
Setting [10] is: second Ki column, unit not printed (apparently M), read-out: Ki (second column).

“And” between values parts separate entries of the source, which are not always exact repeats. Equal values may be shown once. Read-outs that look alike come from different tables or passages of the source.

Data on eight compounds can be found in PMC9455983 (International Journal of Molecular Sciences, 2022).

As for `N=C1NC[C@H](Cc2ccc(O)cc2)N1C[C@H](Cc1ccc(O)cc1)N1C[C@H](Cc2ccc(O)cc2)NC1=N` [1968-70], the Ki worked out at 230 nM in assay [1] (setting [4]); 282 nM in assay [1] (setting [5]); 256 nM in assay [1] (setting [6]); 256 nM in assay [1] (setting [7]); 9960 nM in assay [2] (setting [8]); 10800 nM in assay [2] (setting [9]). Further, the Ki in assay [2] (setting [7]) turned out to be 10800 nM; in assay [2] (setting [10]), 11700 nM; in assay [3] (setting [4]), 11100 nM; in assay [3] (setting [5]) it was 5550 nM; in assay [3] (setting [6]), 8320 nM; in assay [3] (setting [7]), 8320 nM.
On to `Cc1cc(O)cc(C)c1C[C@@H](CN1C(=N)NC[C@@H]1C)N1C[C@H](CC(C)C)NC1=N` [1968-19], for which the Ki was found to be 15.9 nM in assay [1] (setting [4]); 14.2 nM in assay [1] (setting [5]); 15 nM in assay [1] (setting [6]); 15 nM in assay [1] (setting [7]); 1180 nM in assay [2] (setting [8]); 1090 nM in assay [2] (setting [9]). The Ki in assay [2] (setting [7]) is 1100 nM; in assay [2] (setting [10]), 1010 nM; in assay [3] (setting [4]) it was 89.3 nM; in assay [3] (setting [5]), 43.8 nM; in assay [3] (setting [6]) it was 66.5 nM; in assay [3] (setting [7]), 66.5 nM and 66 nM.
In the case of `N=C1NC[C@H](Cc2ccc(O)cc2)N1C[C@H](Cc1ccccc1)N1C[C@H](Cc2ccccc2)NC1=N` [1968-17], the Ki worked out at 1070 nM in assay [1] (setting [4]); 741 nM in assay [1] (setting [5]); 907 nM in assay [1] (setting [6]); 907 nM in assay [1] (setting [7]); 7930 nM in assay [2] (setting [8]); 7100 nM in assay [2] (setting [9]). Further, the Ki in assay [2] (setting [7]) was found to be 7100 nM; in assay [2] (setting [10]) it was 6270 nM; in assay [3] (setting [4]) it was 6270 nM; in assay [3] (setting [5]), 6840 nM; in assay [3] (setting [6]), 6550 nM; in assay [3] (setting [7]), 6550 nM.
As to `CC(C)C[C@@H](CN1C(=N)NC[C@@H]1C)N1C[C@H](Cc2ccc(O)cc2)NC1=N` [1968-42], the Ki was 2130 nM in assay [1] (setting [4]); 2470 nM in assay [1] (setting [5]); 2300 nM in assay [1] (setting [6]); 2300 nM in assay [1] (setting [7]); 20600 nM in assay [2] (setting [8]); 55700 nM in assay [2] (setting [9]). For the same compound, the Ki in assay [2] (setting [7]) amounted to 55700 nM; in assay [2] (setting [10]), 90800 nM; in assay [3] (setting [4]), 12300 nM; in assay [3] (setting [5]) it was 12300 nM; in assay [3] (setting [6]), 12300 nM; in assay [3] (setting [7]), 12300 nM.
With `Cc1cc(O)cc(C)c1C[C@H]1CNC(=N)N1C[C@H](Cc1c(C)cc(O)cc1C)N1C[C@H](Cc2ccc(O)cc2)NC1=N` [1968-62], the Ki in assay [1] (setting [4]) turned out to be 64.2 nM; in assay [1] (setting [5]) it was 78.4 nM; in assay [1] (setting [6]), 71.3 nM; in assay [1] (setting [7]), 71 nM; in assay [2] (setting [8]), 1530 nM; in assay [2] (setting [9]), 1280 nM. Further, the Ki in assay [2] (setting [7]) was determined as 1280 nM; in assay [2] (setting [10]), 1020 nM; in assay [3] (setting [4]), 2300 nM; in assay [3] (setting [5]) it was 2340 nM; in assay [3] (setting [6]) it was 2320 nM; in assay [3] (setting [7]) it was 2320 nM.
For `CC(C)C[C@H]1CN([C@@H](CC(C)C)CN2C(=N)NC[C@@H]2Cc2ccc(O)cc2)C(=N)N1` [1968-27], the Ki in assay [1] (setting [4]) is 960 nM; in assay [1] (setting [5]), 1000 nM; in assay [1] (setting [6]), 981 nM; in assay [1] (setting [7]), 981 nM; in assay [3] (setting [4]), 4240 nM; in assay [3] (setting [5]), 4840 nM. The Ki in assay [3] (setting [6]) and in assay [3] (setting [7]) was 4540 nM throughout.
Take `CC(C)C[C@H]1CN([C@@H](Cc2ccccc2)CN2C(=N)NC[C@@H]2C)C(=N)N1` [1968-35]: the Ki in assay [1] (setting [4]) was 4450 nM; in assay [1] (setting [5]), 4580 nM; in assay [1] (setting [6]) it was 4510 nM; in assay [1] (setting [7]) it was 4510 nM; in assay [3] (setting [4]) it was 34100 nM; in assay [3] (setting [5]), 52600 nM. The Ki in assay [3] (setting [6]) and in assay [3] (setting [7]) was 43300 nM in each case.
In the case of `CC(C)C[C@H]1CN([C@@H](Cc2ccc(O)cc2)CN2C(=N)NC[C@@H]2Cc2ccc(O)cc2)C(=N)N1` [1968-23], the Ki in assay [1] (setting [4]) was 2350 nM; in assay [1] (setting [5]), 2270 nM; in assay [1] (setting [6]), 2310 nM; in assay [1] (setting [7]) it was 2310 nM; in assay [3] (setting [4]), 9520 nM; in assay [3] (setting [5]) it was 7360 nM. In addition, the Ki in assay [3] (setting [6]) and in assay [3] (setting [7]) was 8440 nM in each case.
